Measured values from patent publication US10988766B2, “Compositions and methods used in diagnosing and treating colorectal cancer” (Oregon Health & Science University, priority 2017, dated 2021).

How the values were obtained:
Type in all cases: cell-based, human
[1] = system: HCT-116 cells reverse transfected with anti-miR-451a; experiment: Chemosensitivity model: cell proliferation (CellTiter-Glo) with SHP2 and RAF inhibitors; details: 3.5 uM SHP2-inhibitor, 20 uM RAF-inhibitor, alone or combined; treated 24 hours post transfection
Method: HCT-116 cells (American Type Culture Collection) were cultured in McCoy's media supplemented with 10% fetal bovine serum (FBS) and antibiotics. Cells were tested and found negative for mycoplasma contamination before use in the assays described. Cells were reverse transfected with miR-451a-5p mimics or inhibitors with their respective controls (purchased from Life Technologies), using Lipofectamine® RNAiMAX (Invitrogen) per manufacturer's instructions. We report highly efficient transfection (>90%) of mimics and inhibitors in cell culture, as measured by fluorescent miR control. Cells were irradiated in a Shepherd^137 cesium irradiator at a rate of 1.34 cGy min. HCT-116 cells were initially transfected in a six-well plate, then transferred to a 96-well plate 16 hours post-transfection (2000 cells/well). In the chemosensitivity model, HCT-116 cells were treated with SHP2 inhibitor SHP099, 6-([…]-4-methyl-1-piperidinyl)-3-(2,3-dichlorophenyl)-2-pyrazinamine (Cayman Chemical, cat#20000) (3.5 μM), and RAF inhibitor (selective paradox breaker; SelleckChem, PLX7904, N′-[3-[[5-(2-cyclopropyl-5-pyrimidinyl)-1H-pyrrolo[2,3-b]pyridin-3-yl]carbonyl]-2,4-difluorophenyl]-N-ethyl-N-methyl-sulfamide, cat#57964) (20 μM) at 24 hours post transfection. Cell proliferation was analyzed at 48 hours post irradiation, using CellTiter-Glo®, per the manufacturer's instructions.

HCT116 = experiment: Proliferation after radiation and 5-FU treatment; details: miR-451a mimic vs control mimic, radiation and 5-FU (5 μM), 48 and 96 hours
Method: FIG. 6A is a graph of HCT116 transfected with a miR-451a mimic or a control mimic. Proliferation was analyzed 48 hours after radiation and 5-FU (5 μM) treatment. Mean of triplicate wells is plotted. * indicates P<0.01 on a two-tailed Student's T-test.
FIG. 6B is a graph of HCT116 transfected with a miR-451a mimic or a control mimic. Proliferation was analyzed 96 hours after radiation and 5-FU (5 μM) treatment. Mean of triplicate wells is plotted. * indicates P<0.01 on a two-tailed Student's T-test
(§1) HCT-116 cells were transfected in a 6 well plate with miR-451a-5p mimic or inhibitor, and the corresponding controls from Life Technologies as previously described. Cells were transferred to a 96 well plate 16 hours post-transfection (1000 cells/well). At 24 hours post-transfection the HCT-116 cells were irradiated with 0, 2, or 5 Gy. Cell Titer-Glo and Caspase 3/7 Glo were analyzed at 48 hours and 96 hours post-irradiation, according to manufacturer's instructions.

[2] = system: CAB39, EMSY, EREG, and MEX3C mRNAs; experiment: miR-TRAP / RISC Trap assay; details: HCT116 co-transfected with mutant RISC complex plasmid and miR-451a mimic or control mimic
Text: Fold enrichment over pre-IP mRNAs is depicted. Results are representative of two independent experiments.
HCT116 cells were co-transfected with a plasmid coding for a flag-tagged dominant negative […] mutant (Clontech kit #632016) along with a control mimic or miR-451a-5p mimic according to manufacturer instructions. Twenty-four hours later the RNA protein complexes were crosslinked and the RISC complex was immunoprecipitated using an anti-FLAG antibody and RNA was isolated for quantitative real-time PCR of target genes. The fold enrichment was calculated using pre and post IP controls as well as normalization to the control mimic pull-downs.

HCT-116 cells [3] = experiment: Proliferation in 2D culture (Cell Titer-Glo) after transfection and radiation
Text: HCT-116 cells were reverse transfected with miR-451a-5p mimics, inhibitors and their respective controls were purchased from Life Technologies using Lipofectamine RNAiMAX (Invitrogen) according to manufacturer's instructions.
Cells or mice were irradiated on a Shepherd^137 cesium irradiator at a rate of […] 1.34 cGy min. In tumour-targeted radiation experiments, mice were restrained in a lead shield (Brain Tree Scientific) to minimize exposure to the non-tumour areas.
as §1

HCT-116 cells [4] = experiment: Tumorsphere (3D culture) proliferation assay after transfection and radiation; details: miR-451a mimic vs control mimic, 48 hours after radiation
Method: (§2) FIG. 2B is a graph showing results where HCT116 were transfected with a miR-451a mimic or a control mimic. Proliferation was analyzed 48 hours after radiation in 3D cultures with the indicated doses. Bars depict mean±s.e.m. of triplicate wells. ** indicates P<0.01 on a two-tailed Student's T-test.
as §2, with “3B” for “2B”, “inhibitor (anti-miR-451a)” for “mimic”, “anti-miR.” for “mimic.”, “culture” for “cultures”
as §1

HCT-116 cells [5] = experiment: Colony formation assay (surviving fraction); details: miR-451a mimic vs control mimic, 0, 2 or 5 Gy, colonies counted 12-14 days after plating
Method: Cells were transfected with miR-451a-5p mimic or control mimic for 16 hours. Then cells were plated (100 or 200 cells for 0Gy, 200 or 400 cells/well for 2GY and 400 or 800 cells per well for 5Gy) in triplicate in a 6-well plate. Cells were irradiated 4 hours after plating, 0Gy, 2Gy or 5Gy. Two weeks after plating, cells were fixed and stained with crystal violet and colonies were counted. Surviving fraction was calculated based on the colony numbers normalized to the plating efficiency.

[6] = system: CAB39, EMSY, EREG, and MEX3C mRNA in HCT-116 cells; experiment: qRT-PCR of the miR-451 targets after transfection; details: 24 h after transfection
Method: FIG. 4C is a plot of the results of qRT-PCR of the miR-451 targets in HCT-116 cells at 24 h after transfection.
This list was narrowed by filtering genes with a known role in human colorectal cancer and/or cellular response to ionizing radiation. […] A miR-Trap assay was used to pull down mRNAs enriched at the RNA induced silencing complex in cells transfected with miR-451a.

Molecule	cell proliferation [1]	responses to 5-FU (proliferation) (HCT116)	enrichment of target mRNAs at the RNA induced silencing complex [2]	proliferation in a 2D culture (HCT-116 cells [3]; miR-451a mimic vs control mimic, 48 hours after radiation)	effect in combination with radiation (HCT-116 cells [3]; on the phenotypes (proliferation, tumorsphere, colony formation), especially at the 5 Gy dose)	proliferation in a tumorsphere assay (HCT-116 cells [4])	surviving fraction colony formation (HCT-116 cells [5])	target gene expression at the mRNA level [6]
CC1(N)CCN(c2cnc(-c3cccc(Cl)c3Cl)c(N)n2)CC1 [SHP2-inhibitor, 6-(4-diamino-4-methyl-1-piperidinyl)-3-(2,3-dichlorophenyl)-2-pyrazinamine]	significant decrease in cell proliferation	–	–	–	–	–	–	–
CCN(C)S(=O)(=O)Nc1ccc(F)c(C(=O)c2c[nH]c3ncc(-c4cnc(C5CC5)nc4)cc23)c1F [RAF-inhibitor, N′-[3-[[5-(2-cyclopropyl-5-pyrimidinyl)-1H-pyrrolo[2,3-b]pyridin-3-yl]carbonyl]-2,4-difluorophenyl]-N-ethyl-N-methyl-sulfamide]	significant decrease in cell proliferation	–	–	–	–	–	–	–
miR-451a: miR-451a-5p mimic purchased from Life Technologies, transfected into HCT-116 cells; tumor suppressor miRNA (AAACCGUUACCAUUACUGAGUU; listed as RNA, chemistry not given here; listed as Homo sapiens)	–	enhanced the responses to 5-FU	enriched at the RISC	decreased proliferation	slight additive effect with radiation	decreased proliferation	decreased proliferation	significant downregulation of all four target genes
